Starred links: 1 amine or outer side, 2 acyl side, 3 side chain; linkers in the order of their positions; H or OH if unused. Positions of bridges follow the written chain, without caps; N, C: chain ends. T2 = dibromobenzene scaffold (1,3-bis(bromomethyl)benzene, m-dibromoxylene) forming thioether links to the two Cys; resin = solid-support resin (cross-linked polystyrene) to which the C-terminal amino acid is attached; mXylylene = c1cc(C[*:1])cc(C[*:2])c1
Experiments:
[1] = test system: anti-FSH-β mAb 2; assay: Loopscan: sandwich ELISA of solid-phase cyclized or linear 12-mer FSH β3-loop peptides; type: binding; conditions: solid-phase 12-mer peptides; mAb 2 up to 10 μg/mL
Protocol: FIG. 12: ELISA results of the binding of anti-FSH monoclonal antibody 2 (10 μg/mL) in 3 μL miniwells containing overlapping a) cyclized (with m-dibromoxylene) and b) linear 12-mer peptides of the β3-loop of FSH-beta; Sequence of binding peptide: (AA68-AA79) Ac-CRVPGAAHHADSLC-resin (SEQ ID NO:5).
The formation of peptide loops via reaction of a linear peptide containing two free sulfhydryl groups with 1,3-bis(bromomethyl)benzene scaffold was also carried out on a polypropylene surface grafted with polyacrylic acid (6% solution containing CuSO4, irradiation using γ-radiation at a dose of 12 kGy) and functionalized with amino groups via coupling with t-butyloxycarbonyl-hexamethylene diamine (Boc-HMDA) using dicyclohexylcarbodiimide (DCC) with N-hydroxybenzotriazole (HOBt) and subsequent deprotection of the Boc-groups using trifluoroacetic acid (TFA). Standard Fmoc peptide chemistry was used to synthesize a set of overlapping linear peptides of 14 amino acid long peptides corresponding to the β3-loop of FSH in separate microwells of 3 μL each using our previously developed minicard format. Each peptide was synthesized with a Cys-residue in position 1, followed by the overlapping sequences of the FSH β3-loop (2-13, 3-14, 4-15, etc.) followed by another Cys-residue in the final position. […]

[2] = biological target: mAb 1 (monoclonal antibody specific for beta-FSH); assay: Binding of beta-FSH mimics (T4 double-loop constructs) to beta-FSH-specific monoclonal antibody mAb 1 (Kd)
Source text: For the inhibition of the specific interaction with beta-FSH and its receptor, there is a need for structural mimics of the hormone. Although there is no crystallographic structure describing the interaction of beta-FSH with its receptor, it is very likely that this binding site is discontinuous in nature. We designed and synthesized a number of double-loop peptide construct on a tetrabromo-(T4)scaffold that could be used as beta-FSH mimics. We used the synthetic strategy for structural fixation of linear peptides as outlined above. We tested the capacity of these small peptide-based beta-FSH mimics to bind to a number of different monoclonal antibodies specific for beta-FSH. […] Furthermore, the beta-FSH mimics can be used successfully for the production of antisera that react specifically with beta-FSH.

[3] = biological target: mAb 3468 (anti-beta-CG monoclonal antibody); assay: Binding of beta-CG mimics (T4 double-loop constructs) to monoclonal antibody 3468 (Kd)
Source text: For the inhibition of the specific interaction with hCG and its receptor there is a need for compounds which structurally mimic the hormone. […] It is, therefore, likely that binding of beta-CG to the receptor also involves a discontinuous binding on the hormone. Provided is the design and synthesis of small peptide-based beta-CG mimics that strongly bind to monoclonal antibody 3468. We used the synthetic strategy for structural fixation of linear peptides as outline above.
The beta-CG mimics are advantageously used for the production of antisera that react specifically with hCG.

[4] = biological target: mAb 2 (anti-FSHβ monoclonal antibody); assay: Binding of looped peptide mimics of FSH-β to anti-FSH-β monoclonal antibody mAb 2 (Kd)
Source text: We used the synthetic strategy for structural fixation of linear peptides as outlined above. We tested the capacity of these small peptide-based beta-FSH mimics to bind to a number of different monoclonal antibodies specific for beta-FSH.

binding to anti-FSH-β mAb 2 in sandwich ELISA (in words) [1]	Kd [2]	Kd [3]	Kd [4]	Substance
binds strongly				Ac-CRVPGAAHHADSLC-resin (linker 1-14 via mXylylene (inferred); also: C-terminus resin-bound) [68-79]
	270 nM	15000 nM	2500 nM	c-T2-[Ac-CRVPGAAHHADSLC-NH2] (linker 1-14 via T2 (inferred)) [compound 1]
